Assay: Blood to plasma ratio
Format: in vitro ADME
Settings: mouse, in mice

## Cc1cnc(N[C@H]2CC[C@H](N)CC2)nc1-c1cnc2ccc(-c3ccccc3)cn12 [CDDD11-8]
  blood plasma ratio: 0.71

— paper PMC8909834, “An Orally Bioavailable and Highly Efficacious Inhibitor of CDK9/FLT3 for the Treatment of Acute Myeloid Leukemia” (Cancers, 2022)
